Test results as given in patent publication US6355799B1, “Substituted benzene compounds, process for their preparation, and herbicidal and defoliant compositions containing them” (ISK Americas Incorporated, priority 1997, dated 2002).

Columns and labels:
Assay type in all cases: in vivo
[1] = tested on: johnsongrass (Sorghum halepense, SORHA); experiment: Pre-emerge test, greenhouse herbicide activity screening; conditions: phytotoxicity rating 0-100, 14 days after application
Method in brief: (§1)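 Rating: 0–100 visual injury, 14 DAA. Application: acetone, 187 l/ha, 15–1000 g ai/ha, flat-fan track sprayer with nozzle 40–45 cm above soil or canopy. Post-emerge runs used 0.25% v/v surfactant on 2–3 leaf plants.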

[2] = tested on: ivyleaf morningglory (Ipomoea hederacea, IPOHE); experiment: as above; conditions: phytotoxicity rating 0-100, 14 days after application
Method in brief: as §1

[3] = tested on: barnyardgrass (Echinochloa crus-galli, ECHCG); experiment: as above; conditions: phytotoxicity rating 0-100, 14 days after application
Method in brief: as §1

[4] = tested on: velvetleaf (Abutilon theophrasti, ABUTH); experiment: as above; conditions: phytotoxicity rating 0-100, 14 days after application
Method in brief: as §1

[5] = tested on: green foxtail (Setaria viridis, SETVI); experiment: as above; conditions: phytotoxicity rating 0-100, 14 days after application
Method in brief: as §1

[6] = tested on: lambsquarters (Chenopodium album, CHEAL); experiment: as above; conditions: phytotoxicity rating 0-100, 14 days after application
Method in brief: as §1

[7] = tested on: sicklepod (Cassia obtusifolia, CASOB); experiment: as above; conditions: phytotoxicity rating 0-100, 14 days after application
Method in brief: as §1

[8] = tested on: large crabgrass (Digitaria sanguinalis, DIGSA); experiment: as above; conditions: phytotoxicity rating 0-100, 14 days after application
Method in brief: as §1

[9] = tested on: common ragweed (Ambrosia artemisizfolia L., AMBEL); experiment: as above; conditions: phytotoxicity rating 0-100, 14 days after application
Method in brief: as §1

[10] = tested on: redroot pigweed (Amaranthus retroflexus, AMARE); experiment: as above; conditions: phytotoxicity rating 0-100, 14 days after application
Method in brief: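 Sandy loam pots; pre-emerge: sown 1 d pre-spray, surface-watered after, then bottom-watered. Post-emerge: sown 8–21 d before, 2–3 leaf stage, + 0.25% v/v NIS, bottom-watered. Acetone, 187 l/ha track spray, 15–1000 g ai/ha. 0–100 injury score, day 14.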

[11] = tested on: field corn (Zea mays L., var. Dekalb 535, CORN); experiment: Post-emerge test, crop safety; conditions: post-emerge, 14 days after application, rating scale 0-100
Method in brief: (§2)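 Plants grown in 10 cm pots of sandy loam mix received acetone-dissolved compounds through a moving flat-fan nozzle. Doses ranged from 15 to 1000 g ai/ha. Pre-emerge pots were seeded one day earlier, post-emerge pots 8–21 days earlier. Fourteen days on, each pot was graded 0–100 for damage.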

[12] = tested on: upland rice (Oryza sp., var. Tebonnet, RICE); experiment: Post-emerge test, crop safety; conditions: post-emerge, 14 days after application, rating scale 0-100
Method in brief: as §2

[13] = tested on: redroot pigweed (Amaranthus retroflexus, AMARE); experiment: Post-emerge test, greenhouse herbicide activity screening; conditions: post-emerge, 14 days after application
Method in brief: (§3)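 Compounds in acetone were track-sprayed at 15-1000 g ai/ha (187 l/ha) on sandy loam pots: pre-emerge one day after seeding, post-emerge at 2-3 leaf stage with 0.25% v/v non-ionic surfactant. Phytotoxicity was rated 14 days later on a 0 (no damage) to 100 (complete death) scale.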

[14] = tested on: johnsongrass (Sorghum halepense, SORHA); experiment: as above; conditions: post-emerge, 14 days after application, rating scale 0-100
Method in brief: as §3

[15] = tested on: ivyleaf morningglory (Ipomoea hederacea, IPOHE); experiment: as above; conditions: post-emerge, 14 days after application, rating scale 0-100
Method in brief: as §3

[16] = tested on: barnyardgrass (Echinochloa crus-galli, ECHCG); experiment: as above; conditions: post-emerge, 14 days after application, rating scale 0-100
Method in brief: as §3

[17] = tested on: velvetleaf (Abutilon theophrasti, ABUTH); experiment: as above; conditions: post-emerge, 14 days after application, rating scale 0-100
Method in brief: as §3

[18] = tested on: green foxtail (Setaria viridis, SETVI); experiment: as above; conditions: post-emerge, 14 days after application, rating scale 0-100
Method in brief: as §3

[19] = tested on: lambsquarters (Chenopodium album, CHEAL); experiment: as above; conditions: post-emerge, 14 days after application, rating scale 0-100
Method in brief: as §3

[20] = tested on: sicklepod (Cassia obtusifolia, CASOB); experiment: as above; conditions: post-emerge, 14 days after application, rating scale 0-100
Method in brief: as §3

[21] = tested on: large crabgrass (Digitaria sanguinalis, DIGSA); experiment: as above; conditions: post-emerge, 14 days after application, rating scale 0-100
Method in brief: as §3

[22] = tested on: common ragweed (Ambrosia artemisizfolia L., AMBEL); experiment: as above; conditions: post-emerge, 14 days after application, rating scale 0-100
Method in brief: as §3

[23] = tested on: field corn (Zea mays L., var. Dekalb 535, CORN); experiment: Pre-emerge test, crop safety; conditions: crop damage rating 0-100, 14 days after application
Method in brief: (§4)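 Compounds in acetone were track-sprayed at 187 l/ha, 15–1000 g ai/ha, onto sandy loam pots. Pre-emerge seeds were sown one day before spraying, with surface watering afterwards. Post-emerge plants were at the 2–3 leaf stage and sprayed with 0.25% v/v non-ionic surfactant. Injury was rated 0–100 at 14 days.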

[24] = tested on: upland rice (Oryza sp., var. Tebonnet, RICE); experiment: Pre-emerge test, crop safety; conditions: crop damage rating 0-100, 14 days after application
Method in brief: as §4

For `Cn1c(C(F)(F)F)cc(=O)n(-c2ccc(C(N)=S)cc2NC(=O)c2ccc3ccccc3c2)c1=O` [2-205], the “Pre-emerge Herbicidal Activity SORHA” value ([1]; 63 g ai/ha) was 40, the “Pre-emerge Herbicidal Activity SORHA” value ([1]; 250 g ai/ha) was 85 and the “Pre-emerge Herbicidal Activity IPOHE” value ([2]; 63 g ai/ha) was 0. For the same compound, the “Pre-emerge Herbicidal Activity IPOHE” value ([2]; 250 g ai/ha) was 95, the “Pre-emerge Herbicidal Activity ECHCG” value ([3]; 63 g ai/ha) was 80 and the “Pre-emerge Herbicidal Activity ECHCG” value ([3]; 250 g ai/ha) was 99. The “Pre-emerge Herbicidal Activity ABUTH” value ([4]; 63 g ai/ha) was 100, the “Pre-emerge Herbicidal Activity ABUTH” value ([4]; 250 g ai/ha) was 100 and the “Pre-emerge Herbicidal Activity SETVI” value ([5]; 63 g ai/ha) was 70. The “Pre-emerge Herbicidal Activity SETVI” value ([5]; 250 g ai/ha) was 100, the “Pre-emerge Herbicidal Activity CHEAL” value ([6]; 63 g ai/ha) was 100 and the “Pre-emerge Herbicidal Activity CHEAL” value ([6]; 250 g ai/ha) was 100. The “Pre-emerge Herbicidal Activity CASOB” value ([7]; 63 g ai/ha) was 0, the “Pre-emerge Herbicidal Activity CASOB” value ([7]; 250 g ai/ha) was 40 and the “Pre-emerge Herbicidal Activity DIGSA” value ([8]; 63 g ai/ha) was 70. For the same compound, the “Pre-emerge Herbicidal Activity DIGSA” value ([8]; 250 g ai/ha) was 99, the “Pre-emerge Herbicidal Activity AMBEL” value ([9]; 63 g ai/ha) was 80 and the “Pre-emerge Herbicidal Activity AMBEL” value ([9]; 250 g ai/ha) was 90. For the same compound, the “Pre-emerge Herbicidal Activity AMARE” value ([10]; 63 g ai/ha) was 100, the “Pre-emerge Herbicidal Activity AMARE” value ([10]; 250 g ai/ha) was 100 and the “phytotoxicity rating CORN (crop damage)” value ([11]; 63 g ai/ha) was 10. The “phytotoxicity rating CORN (crop damage)” value ([11]; 250 g ai/ha) was 20, the “phytotoxicity rating RICE (crop damage)” value ([12]; 63 g ai/ha) was 30 and the “phytotoxicity rating RICE (crop damage)” value ([12]; 250 g ai/ha) was 30. For the same compound, the “phytotoxicity rating AMARE” value ([13]; 63 g ai/ha, rating scale 0-100 (0 no damage, 100 complete death)) was 90, the “phytotoxicity rating AMARE” value ([13]; 250 g ai/ha, rating scale 0-100) was 40 and the “phytotoxicity rating SORHA” value ([14]; 63 g ai/ha) was 0. For the same compound, the “phytotoxicity rating SORHA” value ([14]; 250 g ai/ha) was 0, the “phytotoxicity rating IPOHE” value ([15]; 63 g ai/ha) was 100 and the “phytotoxicity rating IPOHE” value ([15]; 250 g ai/ha) was 70. For the same compound, the “phytotoxicity rating ECHCG” value ([16]; 63 g ai/ha) was 0, the “phytotoxicity rating ECHCG” value ([16]; 250 g ai/ha) was 0 and the “phytotoxicity rating ABUTH” value ([17]; 63 g ai/ha) was 100. The “phytotoxicity rating ABUTH” value ([17]; 250 g ai/ha) was 100, the “phytotoxicity rating SETVI” value ([18]; 63 g ai/ha) was 10 and the “phytotoxicity rating SETVI” value ([18]; 250 g ai/ha) was 10. For the same compound, the “phytotoxicity rating CHEAL” value ([19]; 63 g ai/ha) was 70, the “phytotoxicity rating CHEAL” value ([19]; 250 g ai/ha) was 70 and the “phytotoxicity rating CASOB” value ([20]; 63 g ai/ha) was 90. For the same compound, the “phytotoxicity rating CASOB” value ([20]; 250 g ai/ha) was 100, the “phytotoxicity rating DIGSA” value ([21]; 63 g ai/ha) was 10 and the “phytotoxicity rating DIGSA” value ([21]; 250 g ai/ha) was 10. The “phytotoxicity rating AMBEL” value ([22]; 63 g ai/ha) was 70, the “phytotoxicity rating AMBEL” value ([22]; 250 g ai/ha) was 100 and the “Pre-emerge Herbicidal Activity CORN” value ([23]; 63 g ai/ha) was 0. The “Pre-emerge Herbicidal Activity CORN” value ([23]; 250 g ai/ha) was 50, the “Pre-emerge Herbicidal Activity RICE” value ([24]; 63 g ai/ha) was 20 and the “Pre-emerge Herbicidal Activity RICE” value ([24]; 250 g ai/ha) was 70.
